From US4382084A, “Antibiotics” (Beecham Group Limited, priority 1975, dated 1983) come the findings set out here.

For orientation: LD50 means the dose at which mortality reaches 50%. A word on the MIC: it is the lowest concentration found to suppress growth.

One data set has as its system E. coli JT10 β-lactamase. Nature of the data set: β-lactamase inhibition assay (Belgian Patent No. 827926). It is filed as biochemical. Conditions: enzyme of E. coli JT10. The procedure:
(§1) When the compound prepared by the method of Example 1 was tested against certain enzymes by the β-lactamase inhibition assay described in Belgian Patent No. 827926 the following ^I 50 values were obtained: […]

A further data set concerns the target E. coli JT4 β-lactamase (Escherichia coli, UniProt P62593). The data set is described as above. Format: biochemical. The following applies: enzyme of E. coli JT4; read-out: Approximate I50 (converted). As for the experimental part: as §1
The target of data set [1] is Klebsiella aerogenes AE70 β-lactamase. The data set is described as above. It is filed as biochemical. The following applies: enzyme of Klebsiella aerogenes AE70. As for the experimental part:
as §1

For data set [2], the target named is Staphylococcus aureus (Russell) β-lactamase (Staphylococcus aureus, UniProt P00807). The data set is described as above. It is filed as biochemical. Conditions: enzyme of Staphylococcus aureus (Russell); read-out: Approximate I50 (converted). As for the experimental part:
as §1

A short description of the next data set: Acute toxicity in mice. The following applies: mouse, in vivo.
The test system of data set [3] is Staphylococcus aureus Russell. Briefly: MIC test of synergy with ampicillin. The following applies: ampicillin administered separately, read-out: MIC of ampicillin alone (not inhibited by). Format: cell-based. As for the experimental part: b. […] The following test results were obtained using a strain of Staphylococcus aureus Russell which is neither inhibited by 250 μg/ml of ampicillin nor inhibited by 5 μg/ml of synergist aministered separately.

Chain of E. coli JT4 β-lactamase (P62593 24-286 limits assumed): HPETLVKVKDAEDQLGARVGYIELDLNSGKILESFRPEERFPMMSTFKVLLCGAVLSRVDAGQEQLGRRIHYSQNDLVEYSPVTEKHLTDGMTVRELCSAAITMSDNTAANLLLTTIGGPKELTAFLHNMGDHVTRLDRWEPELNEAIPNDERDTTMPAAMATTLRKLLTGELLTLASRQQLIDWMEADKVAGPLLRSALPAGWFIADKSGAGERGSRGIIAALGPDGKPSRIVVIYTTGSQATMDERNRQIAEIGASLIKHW
Chain of Staphylococcus aureus (Russell) β-lactamase (P00807 25-281): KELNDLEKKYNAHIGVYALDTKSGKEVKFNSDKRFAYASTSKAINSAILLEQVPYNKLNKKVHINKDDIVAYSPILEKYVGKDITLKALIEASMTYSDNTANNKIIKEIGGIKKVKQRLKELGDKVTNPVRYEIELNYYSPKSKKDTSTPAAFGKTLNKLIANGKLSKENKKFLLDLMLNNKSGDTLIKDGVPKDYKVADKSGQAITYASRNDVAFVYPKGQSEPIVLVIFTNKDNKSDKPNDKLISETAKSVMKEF

With `O=C(OCc1ccccc1)[C@H]1/C(=C/CN(Cc2ccccc2)Cc2ccccc2)O[C@@H]2CC(=O)N21` [Example 1], the entries for the “Approximate I50” value (with E. coli JT10 β-lactamase; in data set [1]) were 0.24 mg/mL and 0.40 mg/mL, respectively. Moreover, the IC50 on E. coli JT4 β-lactamase is 42.7 µM; in data set [2], 128 µM.
With `C=CCN(CC=C)C/C=C1\O[C@@H]2CC(=O)N2[C@H]1C(=O)OCc1ccccc1` [Example 8, Benzyl diallylaminodeoxyclavulanate], the median lethal dose (LD50) is > 500 mg/kg in “Acute toxicity in mice” (oral route) and > 500 mg/kg in the data set “Acute toxicity in mice” (sc, sub-cutaneous route).
For the compound `CCCN(C/C=C1\O[C@@H]2CC(=O)N2[C@H]1C(=O)O)CCC` [Example 12, 9-(N,N-dipropylamino)-9-deoxyclavulanio acid], the LD50 in the data set “Acute toxicity in mice” (oral route) was > 500 mg/kg; in the data set “Acute toxicity in mice” (sc, sub-cutaneous route), > 500 mg/kg.
Consider `CC1(C)S[C@@H]2[C@H](NC(=O)[C@H](N)c3ccccc3)C(=O)N2[C@H]1C(=O)O` [ampicillin], for which the minimum inhibitory concentration (MIC) in data set [3] is > 250 µg/mL.
